{
  "source": "patent US8784910B2",
  "about": "“Antimicrobial compositions” (Lonza Inc., priority 2002, dated 2014)",
  "key": {"[1]": {"test_system": "Candida albicans and Aspergillus niger", "experiment": "Mixed fungal challenge of preserved anionic protein shampoo (Example 5)", "format": "cell-based", "experimental": "Each anionic shampoo sample in Table 4 below was tested as follows. A standard mixed […] solution was prepared according to the following procedure. 2 agar […] of Candida albicans and 4 agar […] of Aspergillus niger were separately incubated at about 25 EC for about 48 hours and 7 days, respectively. Each slant was washed with 3 mL of sterile 0.85% saline solution, collected and macerated in a tissue grinder. Sufficient amounts of 0.85% saline solution were added to each slant to obtain a visual count under a microscope with a Neubauer Hemocytometer of each innoculum of C. albicans and A. niger. Equal volumes of each standardized innoculum of C. albicans and A. niger were mixed together to form the standardized mixed fungal solution. 40 g of each shampoo sample was inoculated with 0.4 mL of the standardized mixed fungal solution and mixed. 1 g of the mixture was added to a sterile 20×150 mm screw cap test tube. 9 mL of sterile D/E neutralizer broth was added to the test tube and mixed to form a 10^-1 dilution. Serial dilutions were prepared through to a 10^-6 dilution with phosphate buffered water. The serial dilutions were plated onto Sabourand dextrose agar and incubated 5 days at about 25 EC. […] The anionic protein shampoo composition is described in Example 4. The shampoo samples were prepared by mixing the appropriate amounts of the preservatives and the anionic protein shampoo composition and heating the mixture to about 50 EC for about 15 minutes."}, "[2]": {"test_system": "S. aureus, P. aeruginosa, and E. coli", "experiment": "Mixed bacterial challenge of preserved GMS cream (Example 6)", "format": "cell-based", "experimental": "Each anionic shampoo sample in FIGS. 1-3 were tested as follows. […] Each stab was then washed with 3 mL of sterile 0.85% saline solution. The washes of the 3 stabs were pooled together to form an organism mixture. The absorbance of the organism mixture at 530 nm was adjusted to about 1.00 by adding saline. The spectrometer was calibrated with a saline blank. A 5 mL aliquot of the organism mixture was mixed together to produce the standardized mixed bacterial solution. Then, 40 g of each shampoo sample was inoculated with 0.2 mL of the standardized mixed bacterial solution and mixed. 1 g of the mixture was added to a sterile 20×150 mm screw cap test tube. 9 mL of sterile D/E neutralizer broth was added to the test tube and mixed to form a 10^−1 dilution. Serial dilutions were prepared through to a 10^−6 dilution with phosphate buffered water. The serial dilutions were plated onto Tryptic Soy Agar and incubated for 2 days at about 35 EC. Bacteria counts were performed after 21 days. Each cream sample in Table 5 below was tested by the procedure described in Example 1. A glyceryl monostearate (GMS) cream as described in Table 3 below was prepared as follows. The polyoxyethylene glyceryl monostearate, glyceryl monostearate, cetearyl alcohol, and myristyl propionate were mixed and heated to 60 EC in a first container. The glycerin and sterile deionized water were mixed and heated to 60 EC in a second container. The solution in the first container was poured into the second container. The second container was maintained at 60 EC for 10 minutes. The solution in the second container was allowed to cool. The pH of the solution was adjusted to pH 7 with sodium hydroxide to yield the GMS cream. The cream samples shown in Table 6 below were prepared by mixing the appropriate amounts of the preservatives and the GMS cream and heating the mixture to 50 EC for 10-15 minutes."}},
  "data": [
    {"smiles": "O=CC=Cc1ccccc1", "note": "[Cinnamaldehyde, cinnamaldehyde]", "values": [
      {"measurement": "Fungal Plate Count Day 0", "setting": "[1]; 0.05% in shampoo", "value": "1.0 × 10^5 cfu/g"},
      {"measurement": "Fungal Plate Count Day 7", "setting": "[1]; 0.05% in shampoo", "value": "8.0 × 10^3 cfu/g"},
      {"measurement": "Fungal Plate Count Day 14", "setting": "[1]; 0.05% in shampoo", "value": "<10", "unit": "cfu/g"},
      {"measurement": "Fungal Plate Count Day 0", "setting": "[1]; 0.10% in shampoo", "value": "1.0 × 10^5 cfu/g"},
      {"measurement": "Fungal Plate Count Day 7", "setting": "[1]; 0.10% in shampoo", "value": "3.0 × 10^1 cfu/g"},
      {"measurement": "Fungal Plate Count Day 14", "setting": "[1]; 0.10% in shampoo", "value": "<10", "unit": "cfu/g"},
      {"measurement": "Fungal Plate Count Day 0", "setting": "[1]; 0.20 in shampoo", "value": "1.0 × 10^5 cfu/g"},
      {"measurement": "Fungal Plate Count Day 7", "setting": "[1]; 0.20 in shampoo", "value": "<10", "unit": "cfu/g"},
      {"measurement": "Fungal Plate Count Day 14", "setting": "[1]; 0.20 in shampoo", "value": "<10", "unit": "cfu/g"},
      {"measurement": "S. aureus, P. aeruginosa, and E. coli Day 0", "setting": "[2]; 0.10% in GMS cream pH 7, Day 0", "value": "3.0 × 10^7 cfu/g"},
      {"measurement": "S. aureus, P. aeruginosa, and E. coli Day 7", "setting": "[2]; 0.10% in GMS cream pH 7, Day 7", "value": "4.0 × 10^4 cfu/g"},
      {"measurement": "S. aureus, P. aeruginosa, and E. coli Day 14", "setting": "[2]; 0.10% in GMS cream pH 7, Day 14", "value": "9.3 × 10^5 cfu/g"},
      {"measurement": "S. aureus, P. aeruginosa, and E. coli Day 0", "setting": "[2]; 0.25% in GMS cream pH 7, Day 0", "value": "3.0 × 10^7 cfu/g"},
      {"measurement": "S. aureus, P. aeruginosa, and E. coli Day 7", "setting": "[2]; 0.25% in GMS cream pH 7, Day 7", "value": "<10", "unit": "cfu/g"},
      {"measurement": "S. aureus, P. aeruginosa, and E. coli Day 14", "setting": "[2]; 0.25% in GMS cream pH 7, Day 14", "value": "<10", "unit": "cfu/g"}
    ]}
  ]
}
